# “And” between values parts separate entries of the source, which are not always exact repeats. Equal entries are not always repeated. “Also recorded” adds a separate entry of the source.
# Columns and labels:
# [1] = tested on: Bacillus coagulans; test: Viability and colony formation of Bacillus coagulans supplemented with MSM (population count, weight, percent transmittance); format: cell-based; conditions: for Population Count Average / Population Weight Average: 72 hours; for Population Weight Average: washed pellet; for percent transmittance: 25×25 mm agar section, 546 nm
# Method: At the end of the 72 hours, the broth was measured for colony formation, with photographic documentation of colony formation on tryptic soy agar. […] For the Bacillus coagulans, the organism was isolated and grown for 24 hours before harvesting. […] One milliliter of Dilution B was used to inoculate the 30 mL of TSB concentrations stated above. […] Each dilution for the microorganism was plated in triplicate for each sample. To capture the appropriate colonies per milliliter, the microorganism was plated at six different dilutions. […] The population count was based on the dilution of the tryptic soy broth after 72 hours and inoculation on to tryptic soy agar plates. The plates were incubated for 48 hours and enumerated. The tryptic soy broth after 72 hours was centrifuged down in a conical vial. The supernatant was pulled off and the pellet was washed. The centrifuging and washing was repeated three times. At the end of the third wash, the vials with pellet were weighed. Each vial was weighed empty and recorded. The corresponding vial weight was then subtracted from the ending weight of the pellet and vial, to get the weight of the Bacillus coagulans population. […] The slides were sealed to prevent the agar plug from slipping. The wavelength was set at 546 nm, and two empty slides were used as a blank. […] The weights indicated a heavier growth or a colony that was larger in size adding to the weight of the biomass. The percent transmittance was used to indicate Bacillus coagulans colony size in which a decrease in transmittance indicates an increase in colony size as the colony inhibited light from passing through the agar. […] It was observed that the percent transmittance result may be influenced by the sample size, sample location and agar variables.
# [2] = tested on: Acidophilus plus Bifidus milk microorganisms; test: Growth in Acidophilus plus Bifidus milk fortified with MSM; format: cell-based; conditions: A/B milk
# [3] = tested on: E. coli; test: E. coli log growth in MSM supplemented Müller-Hinton media with or without NaCl; format: cell-based, Escherichia coli
# Method: Standard Müller-Hinton media was compared to Müller-Hinton media supplemented with NaCl to the same level as the saline-based media of Example 4. […] Aliquots of each culture were taken at 24 and 48 hours, as well as 7 days.
# [4] = tested on: normal flora found in the milks; test: Growth of non-probiotic microorganisms in Acidophilus milk (standard plate counts); format: cell-based
# Method: 31, 2013. […] The Acidophilus milk was low fat (Darigold). […] This was performed to look at how MSM would affect the normal flora found in the milks. Day 0 was the day the samples were setup for the start of the study. The Acidophilus plus Bifidus milk started with a higher count at Day 0 than what is typically expected. This caused the end values to be elevated. The Acidophilus milk product at Day 0 was at expected values. The Acidophilus milk maintained adequate growth rates through out the study and were equivalent to typical growth rates seen in milk products.
# [5] = tested on: Lactobacillus rhamnosus; test: Growth of Lactobacillus rhamnosus in MRS broth fortified with MSM; format: cell-based; conditions: for Growth (colony forming units): 0.04% MSM in MRS broth, 0-72 hours
# Method: Each organism (Lactobacillus rhamnosus, Lactobacillus acidophilus, and Bifidobacterium bifidum) was grown in MRS bacterial growth medium (broth) and plated on MRS agar at different time intervals. Results are expressed in colony forming units per milliliter (cfu/mL). […] All bacterial organisms were incubated at 35° C. +/−2° C. for the duration of the study. […] All preparations and plating were conducted at room temperature. […] Test samples were plated in triplicate at each test date and the averages are reported.
# [6] = tested on: Escherichia coli (ATCC strain 8739); test: E. coli growth profile in sterile and non-sterile MSM in TSB or saline (USP <51> AET basis, MacConkey agar streak); conditions: for Growth profile of E. coli: 5-16% MSM
# Method: The USP <51> AET is a compendial (United States Pharmacopeia) antimicrobial effectiveness test method for determining if a preservative is effective based upon a verified and validated methodology.
# All tubes except the negative controls were spiked with 250 μl of a 1.2×10^8 culture, which yields an initial E. coli population density of 1.2×10^6/mL. Tubes were incubated at 25° C.
# [7] = tested on: Pseudomonas aeruginosa; test: USP <51> AET in cosmetic cream / cosmetic compositions, 28 days; format: cell-based; conditions: for Microbial growth (count): 48 hrs-28 days; for Log Reduction from Initial Microorganism Inoculum: 14 Days, 28 Days
# Source text: (§1) The cosmetic cream matrix into which the MSM was incorporated was preservative free. An additional cream, with a preservative, was also spiked with E. coli and evaluated.
# [8] = tested on: Escherichia coli; test: as above; format: cell-based; conditions: for Microbial growth (count): 48 hrs-28 days; for Log Reduction from Initial Microorganism Inoculum: 14 Days, 28 Days
# Source text: as §1
# [9] = 10% MSM in Preservative Free Cosmetic Composition #1, 48 hours after inoculation
# [10] = 10% MSM in Preservative Free Cosmetic Composition #1, 7 days after inoculation
# [11] = 10% MSM in cosmetic cream without preservative
# [12] = 10% MSM in preservative-free jojoba cosmetic cream
# [13] = 10% MSM, Preservative Free Cosmetic Composition #1
# [14] = 10% MSM, Preservative Free Cosmetic Composition #2
smiles,measurement,setting,value
"CS(C)(=O)=O [MSM, Methylsulfonylmethane]",Population Count Average,[1]; 1.0% MSM in TSB,1.01 × 10^11
same,Population Weight Average,[1]; 1.0% MSM in TSB,0.1363
same,percent transmittance,[1]; 1.0% MSM,51.5%
same,Population Count Average,[1]; 5.0% MSM in TSB,2.8 × 10^11
same,Population Weight Average,[1]; 5.0% MSM in TSB,0.1260
same,percent transmittance,[1]; 5.0% MSM,45.6%
same,Population Count Average,[1]; […] MSM in TSB,3.3 × 10^11
same,Population Weight Average,[1]; […] MSM in TSB,0.9828
same,percent transmittance,[1]; […] MSM,49.8%
same,Log Growth of Lactobacillus acidophilus in Milk fortified with MSM,[2]; hour 0,6.41 log
same,Log Growth of Lactobacillus acidophilus in Milk fortified with MSM,[2]; hour 8,8.67 log
same,Log Growth of Lactobacillus acidophilus in Milk fortified with MSM,[2]; hour 24,9.16 log
same,Log Growth of Lactobacillus acidophilus in Milk fortified with MSM,[2]; hour 56,8.56 log
same,Log Growth of Lactobacillus acidophilus in Milk fortified with MSM,[2]; hour 96,8.61 log
same,Log Growth of Lactobacillus acidophilus in Milk fortified with MSM,[2]; hour 104,8.92 log
same,log reduction in E. coli,"[3]; FMHS media, 12% MSM, 7 days",3 log
same,reduction of E. coli growth,"[3]; MSM concentrations greater than 13%, 48 hours",1-2 logs
same,Log growth of E. coli,"[3]; after 24 hours, FMH (flaked MSM, Müller-Hinton), rows 16-5% MSM",6.2 log
same,log reduction from the initial inoculum,"[3]; all media, MSM concentrations greater than 13%, 24 hours",approximately 1 log
same,growth of normal flora (standard plate counts),"[4]; 5.0% MSM, throughout the study",did not allow any significant growth
same,Growth of non-probiotic microorganisms in Acidophilus Milk,"[4]; A/B milk, […] MSM, Day 0",370 cfu per mL
same,Growth of non-probiotic microorganisms in Acidophilus Milk,"[4]; A/B milk, […] MSM, Day 3",480 cfu per mL
same,Growth of non-probiotic microorganisms in Acidophilus Milk,"[4]; A/B milk, […] MSM, Day 7",570 cfu per mL
same,Growth of non-probiotic microorganisms in Acidophilus Milk,"[4]; A/B milk, […] MSM, Day 14",1460 cfu per mL
same,Growth of non-probiotic microorganisms in Acidophilus Milk,"[4]; A/B milk, […] MSM, Day 21",3500 cfu per mL
same,Growth of non-probiotic microorganisms in Acidophilus Milk,"[4]; A/B milk, […] MSM, Day 28",110000 cfu per mL
same,Growth of non-probiotic microorganisms in Acidophilus Milk,"[4]; acidophilus milk, 0.50% MSM, Day 0",20 cfu per mL and 30 cfu per mL
same,Growth of non-probiotic microorganisms in Acidophilus Milk,"[4]; acidophilus milk, 0.50% MSM, Day 3",10 cfu per mL
same,Growth of non-probiotic microorganisms in Acidophilus Milk,"[4]; acidophilus milk, 0.50% MSM, Day 7",10 cfu per mL
same,Growth of non-probiotic microorganisms in Acidophilus Milk,"[4]; acidophilus milk, 0.50% MSM, Day 14",20 cfu per mL
same,Growth of non-probiotic microorganisms in Acidophilus Milk,"[4]; acidophilus milk, 0.50% MSM, Day 21",20 cfu per mL and 40 cfu per mL
same,Growth of non-probiotic microorganisms in Acidophilus Milk,"[4]; acidophilus milk, 5% MSM, Day 0",10 cfu per mL and 20 cfu per mL
same,Growth of non-probiotic microorganisms in Acidophilus Milk,"[4]; acidophilus milk, 5% MSM, Day 3",10 cfu per mL
same,Growth of non-probiotic microorganisms in Acidophilus Milk,"[4]; acidophilus milk, 5% MSM, Day 7",10 cfu per mL and 20 cfu per mL
same,Growth of non-probiotic microorganisms in Acidophilus Milk,"[4]; acidophilus milk, 5% MSM, Day 14",20 cfu per mL and 10 cfu per mL
same,Growth of non-probiotic microorganisms in Acidophilus Milk,"[4]; acidophilus milk, 5% MSM, Day 21",20 cfu per mL and 10 cfu per mL
same,Growth of non-probiotic microorganisms in Acidophilus Milk,"[4]; acidophilus milk, 5% MSM, Day 28",10 cfu per mL
same,Growth of non-probiotic microorganisms in Acidophilus Milk,"[4]; acidophilus milk, […] MSM, Day 0",10 cfu per mL
same,Growth of non-probiotic microorganisms in Acidophilus Milk,"[4]; acidophilus milk, […] MSM, Day 14",<10 cfu per mL
same,Growth (colony forming units),[5]; 0 hours of incubation,1.7 × 10^6 cfu/mL
same,Growth (colony forming units),[5]; 12 hours of incubation,2.1 × 10^7 cfu/mL
same,Growth (colony forming units),[5]; 24 hours of incubation,1.5 × 10^9 cfu/mL
same,Growth (colony forming units),[5]; 36 hours of incubation,1.8 × 10^9 cfu/mL
same,Growth (colony forming units),[5]; 48 hours of incubation,2.1 × 10^9 cfu/mL
same,Growth (colony forming units),[5]; 60 hours of incubation,2.6 × 10^9 cfu/mL
same,recovery higher than the 0% control,"[5]; 0.2% MSM, first 12 hours",41%
same,recovery higher than the 0% control,"[5]; 1% MSM, first 12 hours",47%
same,recovery more than the 0% control,"[5]; all MSM samples, first 12 hours",at least 12%
same,visual signs of growth in culture tubes,"[6]; 5-9% MSM in TSB/TSBA media, 24 hours",visible signs of growth
same,visual signs of growth in culture tubes,"[6]; 5-10% MSM in TSB/TSBA, 48 hours, 72 hours",signs of heavy growth
same,visual signs of growth in culture tubes,"[6]; 10-16% MSM in TSB/TSBA media, 24 hours",no signs of growth
same,visual signs of growth in culture tubes,"[6]; 11% MSM in TSB/TSBA, 48 hours, 72 hours",Apparent growth
same,visual signs of growth in culture tubes,"[6]; 12-15% MSM in TSB/TSBA, 48 hours, 72 hours",little to no observable signs of growth
same,visual signs of growth in culture tubes,"[6]; MSM in saline tubes, 24 hours",did not show any signs of growth
same,Growth profile of E. coli,"[6]; after 24 hours, NS (sterile saline added to non-sterile MSM)",Heavy; also recorded: Moderate
same,Growth profile of E. coli,"[6]; after 24 hours, NSA (saline + MSM, then sterilized)",Heavy; also recorded: Moderate
same,Growth profile of E. coli,"[6]; after 24 hours, TSB (sterile TSB added to non-sterile MSM)",Heavy and Moderate and Few
same,Growth profile of E. coli,"[6]; after 24 hours, TSBA (TSB + MSM, then sterilized)",Heavy and Moderate and Few
same,Growth profile of E. coli,"[6]; after 48 hours, NS",Heavy; also recorded: Moderate
same,Growth profile of E. coli,"[6]; after 48 hours, NSA",Heavy; also recorded: Moderate
same,Growth profile of E. coli,"[6]; after 48 hours, TSB",Heavy and Moderate and Few
same,Growth profile of E. coli,"[6]; after 48 hours, TSBA",Heavy and Moderate and Few
same,Growth profile of E. coli,"[6]; after 72 hours, NS",Heavy; also recorded: Moderate
same,Growth profile of E. coli,"[6]; after 72 hours, NSA",Heavy; also recorded: Moderate
same,Growth profile of E. coli,"[6]; after 72 hours, TSB",Heavy and Moderate and Few
same,Growth profile of E. coli,"[6]; after 72 hours, TSBA",Heavy and Moderate and Few
same,Microbial growth (count),[7]; [9],7.3 × 10^3
same,Microbial growth (count),[7]; [10],<10
same,Microbial growth (count),[7]; [11],<10
same,Log Reduction from Initial Microorganism Inoculum,[7]; [12],5.3 log
same,Log Reduction from Initial Microorganism Inoculum,[7]; [13],5.8 log
same,Log Reduction from Initial Microorganism Inoculum,[7]; [14],5.8 log
same,Microbial growth (count),[8]; [9],5.4 × 10^4
same,Microbial growth (count),[8]; [10],<10
same,Microbial growth (count),[8]; [11],<10
same,Log Reduction from Initial Microorganism Inoculum,[8]; [12],5.7 log
same,Log Reduction from Initial Microorganism Inoculum,[8]; [13],5.8 log
same,Log Reduction from Initial Microorganism Inoculum,[8]; [14],5.8 log

# From patent US9487749B2 (priority 2009, dated 2016)
